Marks after values point to notes of the source that are not given here.
Columns and labels:
SCC-1 cells [1] = assay: DNA synthesis, BrdU incorporation into SCC-1 cells; format: cell-based, human; conditions: 3 days of drug treatment
Description: To examine DNA synthesis, SCC-1 cells were seeded onto 22 mm diameter coverglasses placed in 6-well plates (3×10^3 cells/coverglass). […] Three hours prior to fixing cells, 30 μM BrdU was added to cultures. At appropriate times, cells were rinsed, fixed in 10% neutral buffered formalin, and stained with antibodies to BrdU (Roche, Indianapolis, Ind.). The number of positive cells was recorded using fluorescence microscopy. At least 1000 cells/treatment at each time were counted.

SCC-1 cells [2] = assay: SCC-1 xenograft in nude mice, tumor growth, survival, termination day measurements (Example 9); conditions: for latency time to develop visible tumors: controls 7 days; for Incidence of measurable tumor (day 17) / Incidence of measurable tumor (day 13): mice with tumor/N; for Incidence of measurable tumor (day 13): OGF 10 mg/kg daily and/or paclitaxel 8 mg/kg every other day i.p.; for Metastases: spleen, liver, lymph nodes
Text: Male 4 week old nu/nu nude mice purchased from Harlan Laboratories (Indianapolis, Ind.) were housed in pathogen-free isolators in the Department of Comparative Medicine at the Penn State University College of Medicine. All procedures were approved by the IACUC committee of the Penn State University College of Medicine and conformed to the guidelines established by NIH. Mice were allowed 48 hr to acclimate prior to beginning experimentation.
Tumor cells were inoculated into nude mice by subcutaneous injection into the right scapular region. Subcutaneous injections were performed with at least 2×10^6 cells per mouse; mice were not anesthetized for this procedure.
Dosages were selected based on published reports. […] Injections of drugs were initiated 1 hr after tumor cell inoculation. […] Mice were weighed weekly to determine drug dosage.
Mice were observed daily for the presence of tumors. The latency for a visible tumor to appear, and the time until tumors were measurable (i.e., 62.5 mm^3), were recorded. Tumors were measured using calipers every day. Tumor volume was calculated using the formula w^2×1×π/6, where the length is the longest dimension, and width is the dimension perpendicular to length.
According to institutional policies and IACUC guidelines, mice were terminated when tumors became ulcerated, or tumors grew to 2 cm in diameter. […] Tumors and spleens were removed and weighed, and the lymph nodes, liver, and spleen examined for metastases.

CAL-27 cells = assay: Cell proliferation assay of CAL-27 cells; format: cell-based, human; conditions: 48 hr; for fewer cells than in control cultures: OGF 10^−6 M and/or paclitaxel 10^−10 M
Description: (§1) The UM-SCC-1 cell line (SCC-1) was derived from a well-differentiated recurrent squamous cell carcinoma in the floor of the mouth of a person (25). This cell line was obtained from The University of Michigan, Cancer Research Laboratory (Thomas E. Carey, Ph.D., Director). CAL-27 human squamous cell carcinoma cell line, derived from a poorly differentiated carcinoma of the tongue in a person ([…]), was obtained from the American Type Culture Collection (Manassas, Va.). Both cell lines were grown in Dulbecco's MEM (modified) media supplemented with 10% fetal calf serum, 1.2% sodium bicarbonate, and antibiotics (5,000 Units/ml penicillin, 5 mg/ml streptomycin, 10 mg/ml neomycin). The cell cultures were maintained in a humidified atmosphere of 7% CO2/93% air at 37° C.
(§2) Cells were seeded at equivalent amounts into either 6-well or 96-well plates (Falcon) and counted 24 hr later to determine plating efficiency.
(§3) Cell number was recorded either by using the MTS proliferation bioassay (Cell Titer 96 One Solution, Promega, Madison, Wis.) and measuring absorbency after 4 hr on a Biorad (Model 3550) plate reader at 490 nm with a 750 nm background absorbance screening, or by directly counting cells. The MTS assay utilized 10 wells/treatment. For manual counts, cells were harvested by trypsinization with 0.25% trypsin/0.53 mM EDTA, centrif uiged, and counted with a hemacytometer. Cell viability was determined by trypan blue staining. At least two aliquots per well, and 4-10 wells/treatment, were counted at each time for manual counting.

SCC-1 cells [3] = assay: Growth curves of SCC-1 cells, cell proliferation (MTT) assay, absorbency
Description: Cells were counted using a standard MTT assay. In general, each data point represents the average absorbency taken from 10 wells/treatment; error bars represent the S.E.M.

SCC-1 cells [4] = assay: Apoptosis, caspase-3 activity by flow cytometry in SCC-1 cells; format: cell-based, human; conditions: for percentage of caspase-3 positive cells: SCC-1, one day of treatment
Description: Caspase-3-FITC positive staining was used to characterize early stages of apoptosis (29). SCC-1 cells were seeded into 6-well plates and treated with drugs beginning 24 hr later; drugs and media were replaced daily. Cells were harvested after 1, 3 and 6 days of drug treatment, and prepared according to manufacturer's recommendations for FACS analysis (FACS cell sorter with a 15 mW argon ion laser at 488 nm; Becton, Dickinson and Company, Franklin Lakes, N.J.). […] Three samples from each treatment were analyzed at each time point. The percent gated cells recorded by flow cytometry was considered caspase positive.

SCC-1 SCCHN cells = assay: SCC-1 SCCHN tumors in athymic nude mice (Examples 1c and 2)
Description: Tumor dimensions were recorded every day beginning on the day that the tumors were considered measurable.

SCC-1 cells [5] = assay: Cell proliferation assays of SCC-1 cells (MTS or cell counting), Example 8; format: cell-based, human; conditions: for rates of growth over the 4 day period: slopes of growth curves; for difference in cell number between reversal group and group continuing drug exposure: within 48 hr after withdrawal
Description: as §1, §2
The dosage of carboplatin selected was based on previous reports (27, 28), as well as preliminary studies in our laboratory.
as §3
For some experiments, the rate of growth over a 96-hr period of time was calculated using linear regression analyses. The slopes of the lines (number of cells/hr) were compared by analysis of variance. All calculations were performed with GraphPad Prism software.

[6] = day 50 (paclitaxel group: day each mouse died), means ± SEM
[7] = 48 h, paclitaxel 10^−7 M and/or OGF 10^−6 M
[8] = 72 h, paclitaxel 10^−7 M and/or OGF 10^−6 M
[9] = 96 h, paclitaxel 10^−7 M and/or OGF 10^−6 M
[10] = SCC-1, 48 hr, OGF 10^−6 M and/or paclitaxel 10^−8 M
[11] = SCC-1, 72 hr, OGF 10^−6 M and/or paclitaxel 10^−8 M
[12] = SCC-1, 96 hr, OGF 10^−6 M and/or paclitaxel 10^−8 M

CC(=O)O[C@H]1C(=O)[C@@]2(C)[C@H]([C@H](OC(=O)c3ccccc3)[C@]3(O)C[C@H](OC(=O)[C@H](O)[C@@H](NC(=O)c4ccccc4)c4ccccc4)C(C)=C1C3(C)C)[C@]1(OC(C)=O)CO[C@@H]1C[C@@H]2O [paclitaxel]
decrease in the number of BrdU positive cells from control levels (SCC-1 cells [1]): 24%
deaths during the experimental period (SCC-1 cells [2]; 50 days): only one mouse in this group was alive
latency time to develop visible tumors (SCC-1 cells [2]): comparable
mice with measurable tumors (SCC-1 cells [2]; day 13): 66%
mice with measurable tumors (SCC-1 cells [2]; day 17): 83%
Body Weight, g (SCC-1 cells [2]; [6]): 22.6 ± 0.8***+++^^^ g
Spleen Weight (SCC-1 cells [2]; [6]): 243 ± 8 mg
mice that had died by day 40 (SCC-1 cells [2]; male, nu/nu nude, mouse, in vivo, 8 mg/kg, 40 day): 75%
time within which mice began dying (SCC-1 cells [2]; male, nu/nu nude, mouse, in vivo, 50 days): ≤ 20 days
Latency to measurable tumor (SCC-1 cells [2]; means ± SEM): 14.8 ± 1.7 days
Latency to visible tumor (SCC-1 cells [2]; means ± SEM): 7.4 ± 1.4 days
Incidence of measurable tumor (day 17) (SCC-1 cells [2]): 10/12
Incidence of measurable tumor (day 13) (SCC-1 cells [2]): 8/12
body weight subnormal by (SCC-1 cells [2]; mouse, in vivo): 9-10%
gross observations and pathological findings (SCC-1 cells [2]; mouse, in vivo): distended abdomens, impacted bowel, and severe body weight loss
Metastases (SCC-1 cells [2]): none
fewer cells than in control cultures (CAL-27 cells): 35%
growth depressed from control levels (CAL-27 cells; paclitaxel 10^−7 M): 66%
growth depressed from control levels (CAL-27 cells; paclitaxel 10^−8 M): 53%
growth depressed from control levels (CAL-27 cells; paclitaxel 10^−9 M): 44%
growth depressed from control levels (CAL-27 cells; paclitaxel 10^−10 M): 22%
decrease in cell number from control levels (SCC-1 cells [3]; 24 h, paclitaxel 10^−7 M and/or OGF 10^−6 M): 14.2%
decrease in cell number from control levels (SCC-1 cells [3]; [7]): 34.4%
decrease in cell number from control levels (SCC-1 cells [3]; [8]): 58%
decrease in cell number from control levels (SCC-1 cells [3]; [9]): 70%
decrease in cell number from control levels (SCC-1 cells [3]; 96 h, paclitaxel 10^−8 M alone or with OGF 10^−6 M): 19.3%
fraction of SCCHN cells apoptotic (SCC-1 cells [4]; 6 days of drug exposure): over one-half
percentage of caspase-3 positive cells (SCC-1 cells [4]): negligible
average life span (SCC-1 SCCHN cells; 50-day study): 34.3 ± 3.1 days
mice with tumors (SCC-1 SCCHN cells; day 13 after tumor cell inoculation): 66%
observations on organs after premature death (SCC-1 SCCHN cells; histological analysis): distended abdomens with associated megacolon
mice that had died by day 40 (SCC-1 SCCHN cells; nude mice with SCC-1 tumors): 75%
body weight less than controls (SCC-1 SCCHN cells; nude mice with SCC-1 tumors, day 20): 11%
body weight less than controls, OGF and paclitaxel/OGF treated mice (SCC-1 SCCHN cells; nude mice with SCC-1 tumors, day 50): 28%
inhibition at 0.01 µM (SCC-1 cells [5]; Homo sapiens, read-out: inhibition of cell growth relative to control levels): 8.8 to 26%
reduction of cell number from control levels (SCC-1 cells [5]; [10]): ~33%
reduction of cell number from control levels (SCC-1 cells [5]; [11]): 25%
reduction of cell number from control levels (SCC-1 cells [5]; [12]): 51%
rates of growth over the 4 day period (SCC-1 cells [5]; SCC-1): notably reduced from control values
difference in cell number between reversal group and group continuing drug exposure (SCC-1 cells [5]; SCC-1): did not differ

[Met^5]-enkephalin [OGF]
decrease in the number of BrdU positive cells from control levels (SCC-1 cells [1]): 61%
latency time to develop visible tumors (SCC-1 cells [2]): 11 days
mice with measurable tumors (SCC-1 cells [2]; day 13): 33%
mice with measurable tumors (SCC-1 cells [2]; day 17): 66%
tumor volume reduction from control values (SCC-1 cells [2]; day 50): 33%
Tumor Volume, mm^3 (SCC-1 cells [2]; day 50, means ± SEM): 2590 ± 364* mm^3
Tumor Weight (SCC-1 cells [2]; day 50, means ± SEM): 1.7 ± 0.2 g
Latency to measurable tumor (days) (SCC-1 cells [2]; means ± SEM): 17.0 ± 1.5^ days
Latency to visible tumor (days) (SCC-1 cells [2]; means ± SEM): 11.2 ± 1.5^b days
Incidence of measurable tumor (day 17) (SCC-1 cells [2]): 8/12
Incidence of measurable tumor (day 13) (SCC-1 cells [2]): 4/12^a
delay of visible tumors versus controls (SCC-1 cells [2]; p<0.02): four-day delay
Metastases (SCC-1 cells [2]): none
weights of tumors reduced from control levels (SCC-1 cells [2]; termination day (day 50)): 29%
fewer cells than in control cultures (CAL-27 cells): 25%
decrease in cell number from control levels (SCC-1 cells [3]; [7]): 11.9%
decrease in cell number from control levels (SCC-1 cells [3]; [8]): 6.7%
decrease in cell number from control levels (SCC-1 cells [3]; [9]): 12.7%
percentage of caspase-3 positive cells (SCC-1 cells [4]): negligible
latency time for measurable (62.5 mm^3) tumors (SCC-1 SCCHN cells; after tumor cell inoculation): ≤ 17 days
latency to a visible tumor (SCC-1 SCCHN cells; after tumor cell inoculation): ≤ 11 days
reduction of tumor size versus control mice (SCC-1 SCCHN cells; second timepoint (4th day of measurable tumors)): 26%
delay in visible tumor development (SCC-1 SCCHN cells; versus control mice): ~4 days
reduction of cell number from control levels (SCC-1 cells [5]; SCC-1, MTS, 48-96 hr, OGF 10^−6 M alone or with carboplatin 10^−7 M): 8-10%
reduction of cell number from control levels (SCC-1 cells [5]; [10]): approximately 10%
reduction of cell number from control levels (SCC-1 cells [5]; [11]): 10%
reduction of cell number from control levels (SCC-1 cells [5]; [12]): 23%
decrease from control levels in absorbency readings (SCC-1 cells [5]; SCC-1, opioids 10^−6 M daily): 19%
rates of growth over the 4 day period (SCC-1 cells [5]; SCC-1): notably reduced from control values
difference in cell number between reversal group and group continuing drug exposure (SCC-1 cells [5]; SCC-1): 16%

From US8003630B2, “Combinatorial therapies for the treatment of neoplasias using the opioid growth factor receptor” (The Penn State Research Foundation, priority 2004, dated 2011)
